Key:
Assay in all cases: Drug affinity chromatography with c-ponatinib and LC-MS/MS (ponatinib interactome)
Format in all cases: binding
[1] = molecular target: T1, proteins of U2OS cell lysate (Homo sapiens, UniProt Q13233)
T1 construct: Proteins enriched by c-ponatinib from U2OS cell lysate; endogenous in cells; host or cells: U2OS cell lysate
Protocol: (§1) Drug affinity chromatography
(§2) U2OS cells were grown until approximately 80% confluent before being pelleted and washed with PBS. Cell pellets were subsequently lysed in buffer A (50 mM Tris pH 7.5, 0.8% v/v NP-40, 5% v/v glycerol, 1.5 mM MgCl2, 100 mM NaCl, 25 mM NaF, 1 mM Na3VO4, 1 mM PMSF, 1mM DTT, 10 μg/mL TLCK, 1 μg/ml Leupeptin, 1 μg/ml Aprotinin, 1 μg/ml soy bean trypsin) and lysates prepared […]
(§3) concentration was determined and lysates stored at -80 °C.
(§4) Briefly, 100 μl of bead slurry (50% in isopropanol) were used for each pulldown experiment. Beads were washed with DMSO (3 × 500 μl), and resuspended in DMSO (50 μl), to which the amine (0.025 μmol) and triethylamine (0.75 μl) were added. The beads were incubated at room temperature for 16 h, and depletion of free amine from the supernatant was determined by LC-MS analysis. Ethanolamine (2.5 μl) was then added to block any unreacted NHS sites, and the beads incubated for a further 16 h. Derivatized beads were then washed with DMSO (3 × 500 μl), buffer A (3 × 1 ml), and incubated with cell lysates (2 mg of protein per pulldown, at 6 […]
(§5) Beads and treated lysates were incubated for 2 h at 4 °C before washing with buffer A (5 ml), Buffer B (50 mM HEPES pH 7.5, 100 mM NaCl, 500 μM EDTA, 2.5 ml), and eluted with formic acid (100 mM, 250 μl). Samples were neutralized with triethylammoniumbicarbonate (TEAB, 1M, 62.5 μl) and stored at -20 °C until preparation for proteomic analysis.
(§6) Samples were reduced with DTT (10 mM final concentration) for 30 min at room temperature, alkylated with iodoacetamide (55 mM final concentration) for 30 min at room temperature, diluted to 300 μl with TEAB, and incubated with trypsin (6 μl, 0.2 mg/ml) overnight at 37 °C. The digests were desalted using SEPAC lite columns (Waters), eluted with 69 % v/v MeCN, 0.1 % v/v FA in H2O (1 ml) and dried in vacuo. Dried peptides were stored at -20 °C before resuspension in 2 % v/v MeCN, 1 % v/v FA in H2O (20 μl) for LC-MS/MS analysis.
(§7) LC-MS/MS data acquisition
(§8) Mass spectrometry data was acquired at the Discovery Proteomics Facility (University of Oxford).
(§9) Digested samples were analyzed by nano-UPLC–MS/MS using a Dionex Ultimate 3000 nano UPLC with EASY spray column (75 μm × 500 mm, 2 μm particle size, Thermo Fisher Scientific) with a 60 min gradient of 0.1 % (v/v) formic acid in 5 % (v/v) DMSO to 0.1 % (v/v) formic acid with 35 % (v/v) acetonitrile in 5 % (v/v) DMSO at a flow rate of approximately 250 nl min−1 (600 bar per 40 °C column temperature). Mass spectrometry data was acquired either with an Orbitrap Q Exactive (Survey scans acquired at a resolution of 70,000 @ 200m/z and the 15 most abundant precursors were selected for HCD fragmentation), or an Orbitrap Q Exactive High Field (HF) instrument (survey scans were […]

[2] = molecular target: T2, proteins of U2OS cell lysate (Homo sapiens, UniProt P40227)
T2 construct: Proteins enriched by c-ponatinib from U2OS cell lysate; endogenous in cells; host or cells: U2OS cell lysate
Protocol: as §1, §2, §3, §4, §5, §6, §7, §8, §9

[3] = molecular target: T3, proteins of U2OS cell lysate (Homo sapiens, UniProt O43175)
T3 construct: Proteins enriched by c-ponatinib from U2OS cell lysate; endogenous in cells; host or cells: U2OS cell lysate
Protocol: as §1, §2, §3, §4, §5, §6, §7, §8, §9

[4] = molecular target: T4, proteins of U2OS cell lysate (Homo sapiens, UniProt Q99832)
T4 construct: Proteins enriched by c-ponatinib from U2OS cell lysate; endogenous in cells; host or cells: U2OS cell lysate
Protocol: as §1, §2, §3, §4, §5, §6, §7, §8, §9

[5] = molecular target: T5, proteins of U2OS cell lysate (Homo sapiens, UniProt P83436)
T5 construct: Proteins enriched by c-ponatinib from U2OS cell lysate; endogenous in cells; host or cells: U2OS cell lysate
Protocol: as §1, §2, §3, §4, §5, §6, §7, §8, §9

[6] = molecular target: T6, proteins of U2OS cell lysate (Homo sapiens, UniProt P35268)
T6 construct: Proteins enriched by c-ponatinib from U2OS cell lysate; endogenous in cells; host or cells: U2OS cell lysate
Protocol: as §1, §2, §3, §4, §5, §6, §7, §8, §9

[7] = molecular target: T7, proteins of U2OS cell lysate (Homo sapiens, UniProt P19338)
T7 construct: Proteins enriched by c-ponatinib from U2OS cell lysate; endogenous in cells; host or cells: U2OS cell lysate
Protocol: as §1, §2, §3, §4, §5, §6, §7, §8, §9

[8] = molecular target: T8, proteins of U2OS cell lysate (Homo sapiens, UniProt Q7RTV0)
T8 construct: Proteins enriched by c-ponatinib from U2OS cell lysate; endogenous in cells; host or cells: U2OS cell lysate
Protocol: as §1, §2, §3, §4, §5, §6, §7, §8, §9

[9] = molecular target: T9, proteins of U2OS cell lysate (Homo sapiens, UniProt Q99613)
T9 construct: Proteins enriched by c-ponatinib from U2OS cell lysate; endogenous in cells; host or cells: U2OS cell lysate
Protocol: as §1, §2, §3, §4, §5, §6, §7, §8, §9

[10] = molecular target: T10, proteins of U2OS cell lysate (Homo sapiens, UniProt Q99460)
T10 construct: Proteins enriched by c-ponatinib from U2OS cell lysate; endogenous in cells; host or cells: U2OS cell lysate
Protocol: as §1, §2, §3, §4, §5, §6, §7, §8, §9

[11] = molecular target: T11, proteins of U2OS cell lysate (Homo sapiens, UniProt P25786)
T11 construct: Proteins enriched by c-ponatinib from U2OS cell lysate; endogenous in cells; host or cells: U2OS cell lysate
Protocol: as §1, §2, §3, §4, §5, §6, §7, §8, §9

[12] = molecular target: T12, proteins of U2OS cell lysate (Homo sapiens, UniProt P62701)
T12 construct: Proteins enriched by c-ponatinib from U2OS cell lysate; endogenous in cells; host or cells: U2OS cell lysate
Protocol: as §1, §2, §3, §4, §5, §6, §7, §8, §9

[13] = molecular target: T13, proteins of U2OS cell lysate (Homo sapiens, UniProt O75947)
T13 construct: Proteins enriched by c-ponatinib from U2OS cell lysate; endogenous in cells; host or cells: U2OS cell lysate
Protocol: as §1, §2, §3, §4, §5, §6, §7, §8, §9

[14] = molecular target: T14, proteins of U2OS cell lysate (Homo sapiens, UniProt Q92598)
T14 construct: Proteins enriched by c-ponatinib from U2OS cell lysate; endogenous in cells; host or cells: U2OS cell lysate
Protocol: as §1, §2, §3, §4, §5, §6, §7, §8, §9

[15] = molecular target: T15, proteins of U2OS cell lysate (Homo sapiens, UniProt P24539)
T15 construct: Proteins enriched by c-ponatinib from U2OS cell lysate; endogenous in cells; host or cells: U2OS cell lysate
Protocol: as §1, §2, §3, §4, §5, §6, §7, §8, §9

[16] = molecular target: T16, proteins of U2OS cell lysate (Homo sapiens, UniProt Q9NX63)
T16 construct: Proteins enriched by c-ponatinib from U2OS cell lysate; endogenous in cells; host or cells: U2OS cell lysate
Protocol: as §1, §2, §3, §4, §5, §6, §7, §8, §9

[17] = molecular target: T17, proteins of U2OS cell lysate (Homo sapiens, UniProt Q15459)
T17 construct: Proteins enriched by c-ponatinib from U2OS cell lysate; endogenous in cells; host or cells: U2OS cell lysate
Protocol: as §1, §2, §3, §4, §5, §6, §7, §8, §9

[18] = molecular target: T18, proteins of U2OS cell lysate (Homo sapiens, UniProt P23396)
T18 construct: Proteins enriched by c-ponatinib from U2OS cell lysate; endogenous in cells; host or cells: U2OS cell lysate
Protocol: as §1, §2, §3, §4, §5, §6, §7, §8, §9

[19] = molecular target: T19, proteins of U2OS cell lysate (Homo sapiens, UniProt P09619)
T19 construct: Proteins enriched by c-ponatinib from U2OS cell lysate; endogenous in cells; host or cells: U2OS cell lysate
Protocol: as §1, §2, §3, §4, §5, §6, §7, §8, §9

T1 sequence (Q13233 whole entry): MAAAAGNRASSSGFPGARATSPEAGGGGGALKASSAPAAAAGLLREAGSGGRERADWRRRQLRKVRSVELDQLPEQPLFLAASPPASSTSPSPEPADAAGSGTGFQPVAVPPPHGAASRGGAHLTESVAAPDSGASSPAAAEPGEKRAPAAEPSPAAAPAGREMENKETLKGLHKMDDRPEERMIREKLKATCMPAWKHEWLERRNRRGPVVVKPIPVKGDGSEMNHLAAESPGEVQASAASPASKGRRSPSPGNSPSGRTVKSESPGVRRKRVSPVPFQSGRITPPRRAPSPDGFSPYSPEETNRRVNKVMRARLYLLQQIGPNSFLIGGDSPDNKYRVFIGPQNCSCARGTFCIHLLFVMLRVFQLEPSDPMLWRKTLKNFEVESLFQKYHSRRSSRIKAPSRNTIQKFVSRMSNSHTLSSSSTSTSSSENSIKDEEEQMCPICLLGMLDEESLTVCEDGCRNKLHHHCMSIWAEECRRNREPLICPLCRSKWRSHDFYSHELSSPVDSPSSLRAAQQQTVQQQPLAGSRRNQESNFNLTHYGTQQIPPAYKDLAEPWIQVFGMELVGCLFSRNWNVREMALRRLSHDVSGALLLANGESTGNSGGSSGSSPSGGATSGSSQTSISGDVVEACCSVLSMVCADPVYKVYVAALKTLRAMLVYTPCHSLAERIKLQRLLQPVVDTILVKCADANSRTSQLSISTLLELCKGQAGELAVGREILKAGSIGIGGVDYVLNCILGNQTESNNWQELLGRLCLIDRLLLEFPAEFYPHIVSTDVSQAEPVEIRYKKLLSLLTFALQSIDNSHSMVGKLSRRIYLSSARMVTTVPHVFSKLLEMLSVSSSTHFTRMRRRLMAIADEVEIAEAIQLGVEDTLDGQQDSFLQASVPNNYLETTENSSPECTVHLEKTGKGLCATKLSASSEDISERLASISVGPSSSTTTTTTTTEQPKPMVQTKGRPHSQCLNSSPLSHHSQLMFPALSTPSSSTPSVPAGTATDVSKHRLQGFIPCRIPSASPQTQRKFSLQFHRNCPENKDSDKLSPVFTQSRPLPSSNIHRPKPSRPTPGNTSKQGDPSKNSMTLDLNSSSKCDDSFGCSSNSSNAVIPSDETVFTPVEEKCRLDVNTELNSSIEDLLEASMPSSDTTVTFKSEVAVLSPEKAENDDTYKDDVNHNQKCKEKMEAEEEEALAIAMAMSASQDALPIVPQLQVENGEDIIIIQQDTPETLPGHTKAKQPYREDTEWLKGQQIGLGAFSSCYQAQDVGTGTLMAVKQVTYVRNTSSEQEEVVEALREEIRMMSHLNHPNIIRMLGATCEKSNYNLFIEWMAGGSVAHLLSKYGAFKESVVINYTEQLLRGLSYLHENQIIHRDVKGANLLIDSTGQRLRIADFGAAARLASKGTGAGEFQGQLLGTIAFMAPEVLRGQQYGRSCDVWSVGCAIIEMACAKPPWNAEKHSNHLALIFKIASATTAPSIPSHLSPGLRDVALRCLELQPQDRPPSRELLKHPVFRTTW
T13 sequence (O75947 whole entry): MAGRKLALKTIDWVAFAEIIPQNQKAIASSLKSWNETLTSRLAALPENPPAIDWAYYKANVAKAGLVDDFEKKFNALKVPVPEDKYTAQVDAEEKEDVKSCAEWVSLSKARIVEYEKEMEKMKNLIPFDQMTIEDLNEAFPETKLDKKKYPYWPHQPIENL
T3 sequence (O43175 whole entry): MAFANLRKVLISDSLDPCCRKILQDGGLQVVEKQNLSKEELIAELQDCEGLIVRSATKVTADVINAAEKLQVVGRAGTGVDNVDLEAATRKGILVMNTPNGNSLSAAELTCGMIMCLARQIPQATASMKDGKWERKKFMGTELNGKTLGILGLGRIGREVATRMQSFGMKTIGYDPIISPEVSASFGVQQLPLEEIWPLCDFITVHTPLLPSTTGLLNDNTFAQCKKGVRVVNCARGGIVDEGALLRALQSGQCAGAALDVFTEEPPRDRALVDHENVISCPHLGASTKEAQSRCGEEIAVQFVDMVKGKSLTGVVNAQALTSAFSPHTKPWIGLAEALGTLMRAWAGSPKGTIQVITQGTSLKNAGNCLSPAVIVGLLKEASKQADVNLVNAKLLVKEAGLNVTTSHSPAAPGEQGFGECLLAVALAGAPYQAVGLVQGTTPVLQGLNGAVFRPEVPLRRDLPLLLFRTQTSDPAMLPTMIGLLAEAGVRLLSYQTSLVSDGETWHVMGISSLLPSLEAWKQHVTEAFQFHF
T7 sequence (P19338 whole entry): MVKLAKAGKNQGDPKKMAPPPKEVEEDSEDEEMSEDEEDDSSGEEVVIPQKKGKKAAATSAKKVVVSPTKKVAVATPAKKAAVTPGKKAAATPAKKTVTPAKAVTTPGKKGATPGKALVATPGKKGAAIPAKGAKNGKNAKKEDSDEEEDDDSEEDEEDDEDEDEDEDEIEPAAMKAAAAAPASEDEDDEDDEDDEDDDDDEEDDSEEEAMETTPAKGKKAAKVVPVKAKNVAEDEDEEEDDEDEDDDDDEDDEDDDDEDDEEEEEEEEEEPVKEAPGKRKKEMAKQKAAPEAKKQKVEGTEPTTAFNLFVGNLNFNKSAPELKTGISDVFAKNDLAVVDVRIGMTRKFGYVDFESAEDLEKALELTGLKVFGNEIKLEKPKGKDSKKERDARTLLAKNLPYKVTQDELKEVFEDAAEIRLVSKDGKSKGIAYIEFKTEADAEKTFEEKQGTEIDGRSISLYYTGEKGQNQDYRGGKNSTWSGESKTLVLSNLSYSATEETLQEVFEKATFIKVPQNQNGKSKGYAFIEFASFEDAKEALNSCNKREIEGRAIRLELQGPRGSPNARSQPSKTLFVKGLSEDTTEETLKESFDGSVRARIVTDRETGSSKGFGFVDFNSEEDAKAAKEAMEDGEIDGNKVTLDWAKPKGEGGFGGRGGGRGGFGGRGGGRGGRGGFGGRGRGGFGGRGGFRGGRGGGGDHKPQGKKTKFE
T19 sequence (P09619 33-1106): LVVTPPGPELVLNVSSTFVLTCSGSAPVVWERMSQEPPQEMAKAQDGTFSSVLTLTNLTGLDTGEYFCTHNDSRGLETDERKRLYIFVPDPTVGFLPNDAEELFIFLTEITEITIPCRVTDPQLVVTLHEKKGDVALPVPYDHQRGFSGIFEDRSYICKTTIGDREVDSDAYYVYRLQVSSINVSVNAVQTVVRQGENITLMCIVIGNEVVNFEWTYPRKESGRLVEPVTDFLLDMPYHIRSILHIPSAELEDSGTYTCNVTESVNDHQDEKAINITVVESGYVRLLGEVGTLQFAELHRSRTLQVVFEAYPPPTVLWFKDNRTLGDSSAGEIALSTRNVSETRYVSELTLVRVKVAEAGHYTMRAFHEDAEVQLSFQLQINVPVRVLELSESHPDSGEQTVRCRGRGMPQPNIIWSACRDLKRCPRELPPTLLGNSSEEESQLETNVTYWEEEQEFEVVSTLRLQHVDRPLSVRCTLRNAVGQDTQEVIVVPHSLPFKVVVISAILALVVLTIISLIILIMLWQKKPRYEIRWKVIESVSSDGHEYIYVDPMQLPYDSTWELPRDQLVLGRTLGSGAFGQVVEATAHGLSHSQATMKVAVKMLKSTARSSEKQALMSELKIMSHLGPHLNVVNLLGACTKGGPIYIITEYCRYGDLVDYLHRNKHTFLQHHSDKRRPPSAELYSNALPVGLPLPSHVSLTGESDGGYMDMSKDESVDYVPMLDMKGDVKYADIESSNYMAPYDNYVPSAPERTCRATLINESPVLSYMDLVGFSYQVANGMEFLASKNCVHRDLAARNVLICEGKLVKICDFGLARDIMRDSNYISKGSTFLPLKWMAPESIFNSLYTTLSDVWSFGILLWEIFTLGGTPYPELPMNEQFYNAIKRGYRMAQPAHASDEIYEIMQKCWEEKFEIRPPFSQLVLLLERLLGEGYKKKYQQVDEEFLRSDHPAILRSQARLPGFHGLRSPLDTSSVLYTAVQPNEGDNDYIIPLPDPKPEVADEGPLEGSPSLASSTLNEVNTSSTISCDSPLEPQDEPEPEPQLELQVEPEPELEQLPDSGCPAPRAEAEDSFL
T9 sequence (Q99613 whole entry): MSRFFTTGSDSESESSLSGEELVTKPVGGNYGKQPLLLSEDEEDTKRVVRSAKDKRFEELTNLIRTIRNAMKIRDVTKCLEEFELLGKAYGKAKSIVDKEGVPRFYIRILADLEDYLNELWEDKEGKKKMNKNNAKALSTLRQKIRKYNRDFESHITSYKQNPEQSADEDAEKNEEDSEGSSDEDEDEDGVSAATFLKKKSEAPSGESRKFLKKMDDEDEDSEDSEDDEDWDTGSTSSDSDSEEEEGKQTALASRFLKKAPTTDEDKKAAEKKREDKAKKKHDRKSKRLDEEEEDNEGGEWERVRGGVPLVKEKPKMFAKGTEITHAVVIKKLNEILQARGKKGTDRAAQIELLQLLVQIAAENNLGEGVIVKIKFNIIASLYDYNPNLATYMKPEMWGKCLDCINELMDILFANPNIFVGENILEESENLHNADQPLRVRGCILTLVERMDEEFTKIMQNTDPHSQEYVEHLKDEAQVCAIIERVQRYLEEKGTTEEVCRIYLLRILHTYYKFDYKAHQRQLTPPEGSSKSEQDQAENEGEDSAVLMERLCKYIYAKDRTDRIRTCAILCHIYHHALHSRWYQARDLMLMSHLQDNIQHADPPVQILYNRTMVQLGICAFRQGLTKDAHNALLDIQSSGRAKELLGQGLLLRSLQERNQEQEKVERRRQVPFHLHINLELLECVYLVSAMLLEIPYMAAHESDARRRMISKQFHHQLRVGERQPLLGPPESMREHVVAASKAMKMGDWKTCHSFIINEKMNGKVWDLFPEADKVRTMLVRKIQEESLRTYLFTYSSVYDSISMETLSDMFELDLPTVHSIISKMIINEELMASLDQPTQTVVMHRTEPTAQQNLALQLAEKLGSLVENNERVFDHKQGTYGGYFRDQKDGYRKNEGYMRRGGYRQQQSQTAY
T8 sequence (Q7RTV0 whole entry): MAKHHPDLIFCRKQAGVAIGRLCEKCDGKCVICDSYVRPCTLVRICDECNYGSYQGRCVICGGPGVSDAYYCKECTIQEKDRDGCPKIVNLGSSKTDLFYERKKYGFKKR

SMILES: Cc1ccc(C(=O)Nc2ccc(CN3CCN(C)CC3)c(C(F)(F)F)c2)cc1C#Cc1cnc2cccnn12 [PON]
- Average LFQ PON_WT ([1]; MAP3K1, Mitogen-activated protein kinase kinase kinase 1): 22.7864
- Average LFQ PON_WT ([2]; CCT6A, T-complex protein 1 subunit zeta): 22.8673
- Average LFQ PON_WT ([3]; PHGDH, D-3-phosphoglycerate dehydrogenase): 23.086
- Average LFQ PON_WT ([4]; CCT7, T-complex protein 1 subunit eta): 22.9495
- Average LFQ PON_WT ([5]; COG7, Conserved oligomeric Golgi complex subunit 7): 22.1578
- Average LFQ PON_WT ([6]; RPL22, 60S ribosomal protein L22): 21.5804
- Average LFQ PON_WT ([7]; NCL, Nucleolin): 23.1289
- Average LFQ PON_WT ([8]; PHF5A, PHD finger-like domain-containing protein 5A): 21.937
- Average LFQ PON_WT ([9]; EIF3C;EIF3CL, Eukaryotic translation initiation factor 3 subunit C): 21.9967
- Average LFQ PON_WT ([10]; PSMD1, 26S proteasome non-ATPase regulatory subunit 1): 21.8552
- Average LFQ PON_WT ([11]; PSMA1, Proteasome subunit alpha type-1): 22.7928
- Average LFQ PON_WT ([12]; RPS4X, 40S ribosomal protein S4, X isoform): 22.7536
- Average LFQ PON_WT ([13]; ATP5H, ATP synthase subunit d, mitochondrial): 23.183
- Average LFQ PON_WT ([14]; HSPH1, Heat shock protein 105 kDa): 22.355
- Average LFQ PON_WT ([15]; ATP5F1, ATP synthase subunit b, mitochondrial): 22.7408
- Average LFQ PON_WT ([16]; CHCHD3, Coiled-coil-helix-coiled-coil-helix domain-containing protein 3, mitochondrial): 22.5984
- Average LFQ PON_WT ([17]; SF3A1, Splicing factor 3A subunit 1): 21.9763
- Average LFQ PON_WT ([18]; RPS3, 40S ribosomal protein S3): 21.7356
- Average LFQ PON_WT ([19]; PDGFRB, Platelet-derived growth factor receptor beta): 22.3008

SMILES: Cc1ccc(C(=O)Nc2ccc(CN3CCN(CCCN)CC3)c(C(F)(F)F)c2)cc1C#Cc1cnc2cccnn12 [c-ponatinib, reference compound]
- Average LFQ intensity ([1]; captured protein MAP3K1, Rank 139): 22.7864
- Average LFQ intensity ([2]; captured protein CCT6A, Rank 133): 22.8673
- Average LFQ intensity ([3]; captured protein PHGDH, Rank 119): 23.086
- Average LFQ intensity ([4]; captured protein CCT7, Rank 127): 22.9495
- Average LFQ intensity ([5]; captured protein COG7, Rank 182): 22.1578
- Average LFQ intensity ([6]; captured protein RPL22, Rank 221): 21.5804
- Average LFQ intensity ([7]; captured protein NCL, Rank 117): 23.1289
- Average LFQ intensity ([8]; captured protein PHF5A, Rank 194): 21.937
- Average LFQ intensity ([9]; captured protein EIF3C;EIF3CL, Rank 191): 21.9967
- Average LFQ intensity ([10]; captured protein PSMD1, Rank 199): 21.8552
- Average LFQ intensity ([11]; captured protein PSMA1, Rank 138): 22.7928
- Average LFQ intensity ([12]; captured protein RPS4X, Rank 140): 22.7536
- Average LFQ intensity ([13]; captured protein ATP5H, Rank 115): 23.183
- Average LFQ intensity ([14]; captured protein HSPH1, Rank 164): 22.3551
- Average LFQ intensity ([15]; captured protein ATP5F1, Rank 144): 22.7408
- Average LFQ intensity ([16]; captured protein CHCHD3, Rank 154): 22.5984
- Average LFQ intensity ([17]; captured protein SF3A1, Rank 193): 21.9763
- Average LFQ intensity ([18]; captured protein RPS3, Rank 210): 21.7357
- Average LFQ intensity ([19]; captured protein PDGFRB, Rank 168): 22.3008
